The molecules below were run against SMYD3 (Homo sapiens (Human), UniProt Q9H7B4) (assay: SMYD3 biochemical assay (SMYD3 enzyme assay on MEKK2 protein substrate, scintillation proximity assay)). Conditions: 3H-SAM, SPA, IC50 values are an average of n = 1 to n = 50, read-out: SMYD3 Biochem IC50.
Excerpt: S-adenosylmethionine (SAM), S-adenosylhomocysteine (SAH), Tris, Tween20, dimethylsulfoxide (DMSO), bovine skin gelatin (BSG), and Tris(2-carboxyethyl)phosphine hydrochloride solution (TCEP) were purchased from Sigma-Aldrich at the highest level of purity possible. ^3H-SAM was purchase from American Radiolabeled Chemicals with a specific activity of 80 Ci/mmol. 384-well opaque white OptiPlates and SPA beads (Perkin Elmer, catalog # RPNQ0013) were purchased from PerkinElmer.
N-terminally GST-tagged MEKK2 (MAP3K2) protein corresponding to reference sequence AAF63496.3 was purchased from Life Technologies (catalog # PV4010). […] Protein identity was confirmed by MS/MS analysis after proteolytic digestion. The protein sequence used was:
Full-length human SMYD3 isoform 1 (BAB86333) was inserted into a modified pET21b plasmid containing a His6 tag and TEV and SUMO cleavage sites. Because two common variants of SMYD3 exist in the population, site directed mutagenesis was subsequently performed to change amino acid 13 from an asparagine to a lysine, resulting in plasmid pEPZ533.
E. coli (BL21 codonplus RIL strain, Stratagene) were transformed with plasmid pEPZ553 by mixing competent cells and plasmid DNA and incubating on ice for 30minutes followed by heat shock at 42° C. for 1 minute and cooling on ice for 2 minutes. Transformed cells were grown and selected on LB agar with 100 μg/mL ampicillin and 17 μg/mL chloramphenicol at 37° C. overnight. A single clone was used to inoculate 200 mL of LB medium with 100 μg/mL ampicillin and 17 μg/mL chloramphenicol and incubated at 37° C. on an orbital shaker at 180 rpm. Once in log growth, the culture was diluted 1:100 into 2 L of LB medium and grown until OD600 was about 0.3 after which the culture was incubated at 15° C. and 160 rpm. Once OD600 reached about 0.4, IPTG was added to a final concentration of 0.1 mM and the cells were grown overnight at 15° C. and 160 rpm. Cells were harvested by centrifugation at 8000 rpm, for 4 minutes at 4° C. and stored at −80° C. for purification.
The column was washed with Buffer B (Buffer A plus 20 mM imidazole) and His-tagged SMYD3 was eluted with Buffer C (Buffer A plus 300 mM imidazole). The His tag, TEV and SUMO cleavage sites were removed generating native SMYD3 by addition of ULP1 protein at a ratio of 1:200 (ULP1:SMYD3). Imidazole was removed by dialysis overnight in Buffer A. The dialyzed solution was applied to a second Nickel column and the native SMYD3 protein was collected from the column flow-through. The flow-through was dialyzed in Buffer D (25 mM Tris, 5% glycerol, 5 mM β-mercaptoethanol, 50 mM NaCl, pH7.8) and ULP1 was removed using a Q sepharose fast flow column.
General Procedure for SMYD3 Enzyme Assays on MEKK2 Protein Substrate
The assays were all performed in a buffer consisting of 25 mM Tris-Cl pH 8.0, 1 mM TCEP, 0.005% BSG, and 0.005% Tween 20, prepared on the day of use. Compounds in 100% DMSO (1 ul) were spotted into a 384-well white opaque OptiPlate using a Bravo automated liquid handling platform outfitted with a 384-channel head (Agilent Technologies). DMSO (1 ul) was added to Columns 11, 12, 23, 24, rows A-H for the maximum signal control and 1 ul of SAH, a known product and inhibitor of SMYD3, was added to columns 11, 12, 23, 24, rows I-P for the minimum signal control. A cocktail (40 ul) containing the SMYD3 enzyme was added by Multidrop Combi (Thermo-Fisher). The compounds were allowed to incubate with SMYD3 for 30 min at room temperature, then a cocktail (10 ul) containing SAM and MEKK2 was added to initiate the reaction (final volume=51 ul).

SMYD3, sequence (Q9H7B4 whole entry): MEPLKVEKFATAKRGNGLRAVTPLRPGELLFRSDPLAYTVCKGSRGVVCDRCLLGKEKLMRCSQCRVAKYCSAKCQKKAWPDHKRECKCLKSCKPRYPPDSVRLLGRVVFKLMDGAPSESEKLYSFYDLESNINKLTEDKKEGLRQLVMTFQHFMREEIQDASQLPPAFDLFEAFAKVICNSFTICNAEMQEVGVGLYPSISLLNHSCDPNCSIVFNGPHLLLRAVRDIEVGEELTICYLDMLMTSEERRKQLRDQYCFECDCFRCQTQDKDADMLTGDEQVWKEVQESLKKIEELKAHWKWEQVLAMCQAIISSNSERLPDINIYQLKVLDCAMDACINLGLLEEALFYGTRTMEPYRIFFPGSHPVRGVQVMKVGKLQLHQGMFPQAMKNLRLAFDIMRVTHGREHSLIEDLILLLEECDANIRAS

| Compound | IC50 |
| --- | --- |
| CCc1cc(C(=O)N[C@H]2CC[C@H](NC(=O)C[C@H](C)N)C[C@H]2CC)no1 (mixture of isomers) [compound 7, Mixture of N-((1S,2R,4S)-4-((S)-3-aminobutanamido)-2-ethylcyclohexyl)-5-ethylisoxazole-3-carboxamide and N-((1R,2S,4R)-4-((S)-3-aminobutanamido)-2-ethylcyclohexyl)-5-ethylisoxazole-3-carboxamide; (1S,2R,4S) isomer depicted] | 170 nM |
| NC1CCC1C(=O)N[C@H]1CC[C@H](NC(=O)c2cc(C3CC3)on2)CC1 (stereo partly drawn) [Cpd. No. 3, N-((1r,4r)-4-(2-amino-cyclobutane-1-carboxamido)cyclo-hexyl)-5-cyclopropylisoxazole-3-carboxamide] | 545 nM |
| CC(N)CC(=O)N[C@H]1CC[C@H](NC(=O)c2cc(C3CC3)on2)CC1 (stereo partly drawn) [compound 1, N-((1r,4r)-4-(3-aminobutanamido)cyclohexyl)-5-cyclopropylisoxazole-3-carboxamide] | 466 nM |
| CCc1cc(C(=O)N[C@H]2CC[C@H](N)C[C@H]2CC)no1 [compound 2, N-((1S,2R,4S)-4-amino-2-ethylcyclohexyl)-5-ethylisoxazole-3-carboxamide] | 2440 nM |
| CC(CN)C(=O)N[C@H]1CC[C@H](NC(=O)c2cc(C3CC3)on2)CC1 (stereo partly drawn) [compound 8, N-((1r,4r)-4-(3-amino-2-methylpropanamido)cyclohexyl)-5-cyclopropylisoxazole-3-carboxamide] | 654 nM |
| CN1CCN(CCC(=O)N[C@H]2CC[C@H](NC(=O)c3cc(C4CC4)on3)CC2)CC1 [compound 10, 5-cyclopropyl-N-((1r,4r)-4-(3-(4-methylpiperazin-1-yl)propanamido)cyclohexyl)isoxazole-3-carboxamide] | 7720 nM |
| CNCCC(=O)N[C@H]1CC[C@H](NC(=O)c2cc(C3CC3)on2)CC1 [compound 12, 5-cyclopropyl-N-((1r,4r)-4-(3-(methylamino)propanamido)cyclohexyl) isoxazole-3-carboxamide] | 867 nM |
| N[C@H]1CC[C@@H](C(=O)N[C@H]2CC[C@H](NC(=O)c3cc(C4CC4)on3)CC2)CC1 [compound 13, N-((1R,4r)-4-((1s,4S)-4-aminocyclohexane-1-carboxamido)cyclohexyl)-5-cyclopropylisoxazole-3-carboxamide] | 352 nM |
| N[C@H]1C[C@@H](C(=O)N[C@H]2CC[C@H](NC(=O)c3cc(C4CC4)on3)CC2)C1 [compound 14, N-((1R,4r)-4-((1s,3S)-3-aminocyclobutane-1-carboxamido)cyclohexyl)-5-cyclopropylisoxazole-3-carboxamide] | 1180 nM |
| O=C(CCN1CCOCC1)N[C@H]1CC[C@H](NC(=O)c2cc(C3CC3)on2)CC1 [compound 15, 5-cyclopropyl-N-((1r,4r)-4-(3-morpholino-propanamido)cyclohexyl) isoxazole-3-carboxamide] | 20400 nM |
| N[C@H]1CC[C@H](C(=O)N[C@H]2CC[C@H](NC(=O)c3cc(C4CC4)on3)CC2)CC1 [compound 16, N-((1R,4r)-4-((1r,4R)-4-aminocyclohexane-1-carboxamido)cyclohexyl)-5-cyclopropylisoxazole-3-carboxamide] | 606 nM |
| O=C(CCN1CCNCC1)N[C@H]1CC[C@H](NC(=O)c2cc(C3CC3)on2)CC1 [compound 17, 5-cyclopropyl-N-((1r,4r)-4-(3-(piperazin-1-yl)propanamido)cyclohexyl)isoxazole-3-carboxamide] | 1150 nM |
| O=C(CCNCc1ccccc1)N[C@H]1CC[C@H](NC(=O)c2cc(C3CC3)on2)CC1 [compound 18, N-((1r,4r)-4-(3-(benzylamino)propanamido)cyclohexyl)-5-cyclopropylisoxazole-3-carboxamide] | 671 nM |
| CC(C)CNCCC(=O)N[C@H]1CC[C@H](NC(=O)c2cc(C3CC3)on2)CC1 [compound 19, 5-cyclopropyl-N-((1r,4r)-4-(3-(isobutylamino)propanamido)cyclohexyl)isoxazole-3-carboxamide] | 919 nM |
| N[C@@H]1CC[C@H](C(=O)N[C@H]2CC[C@H](NC(=O)c3cc(C4CC4)on3)CC2)C1 [compound 21, N-((1S,4r)-4-((1S,3R)-3-aminocyclopentane-1-carboxamido)cyclohexyl)-5-cyclopropylisoxazole-3-carboxamide] | 511 nM |
| N[C@H]1C[C@H](C(=O)N[C@H]2CC[C@H](NC(=O)c3cc(C4CC4)on3)CC2)C1 [compound 22, N-((1R,4r)-4-((1r,3R)-3-aminocyclobutane-1-carboxamido)cyclohexyl)-5-cyclopropylisoxazole-3-carboxamide] | 269 nM |
| CC(C)CCN[C@H]1CC[C@H](NC(=O)c2cc(C3CC3)on2)CC1 [compound 25, 5-cyclopropyl-N-((1r,4r)-4-(isopentylamino)cyclohexyl)isoxazole-3-carboxamide] | 8230 nM |
| CCS(=O)(=O)N[C@H]1CC[C@H](NC(=O)c2cc(C3CC3)on2)CC1 [compound 37, 5-cyclopropyl-N-((1r,4r)-4-(ethylsulfonamido)cyclohexyl)isoxazole-3-carboxamide] | 6360 nM |

More lines, now with the values ahead:

| IC50 | Compound |
| --- | --- |
| 1340 nM | NCCCS(=O)(=O)N[C@H]1CC[C@H](NC(=O)c2cc(C3CC3)on2)CC1 [Cpd. No. 34, N-((1r,4r)-4-((3-amino-propyl)sulfonamido)cyclohexyl)-5-cyclopropylisoxazole-3-carboxamide] |
| 475 nM | NCCC(=O)N[C@H]1CC[C@H](NC(=O)c2cc(C3CC3)on2)CC1 [compound 4, N-((1r,4r)-4-(3-aminopropanamido)cyclohexyl)-5-cyclopropylisoxazole-3-carboxamide] |
| 2280 nM | NCCC(=O)N(CCO)[C@H]1CC[C@H](NC(=O)c2cc(C3CC3)on2)CC1 [compound 9, N-((1r,4r)-4-(3-amino-N-(2-hydroxyethyl)propanamido)cyclohexyl)-5-cyclo-propylisoxazole-3-carboxamide] |
| 342 nM | NCCCN[C@H]1CC[C@H](NC(=O)c2cc(C3CC3)on2)CC1 [compound 23, N-((1r,4r)-4-((3-aminopropyl)amino)cyclohexyl)-5-cyclopropylisoxazole-3-carboxamide] |
| 567 nM | NCC(O)C(=O)N[C@H]1CC[C@H](NC(=O)c2cc(C3CC3)on2)CC1 (stereo partly drawn) [compound 27, N-((1r,4r)-4-(3-amino-2-hydroxypropanamido)cyclohexyl)-5-cyclopropylisoxazole-3-carboxamide] |
| 853 nM | NCCN[C@H]1CC[C@H](NC(=O)c2cc(C3CC3)on2)CC1 [compound 28, N-((1r,4r)-4-((2-aminoethyl)amino)cyclohexyl)-5-cyclopropylisoxazole-3-carboxamide] |
| 2900 nM | NCCS(=O)(=O)N[C@H]1CC[C@H](NC(=O)c2cc(C3CC3)on2)CC1 [compound 29, N-((1r,4r)-4-((2-aminoethyl)sulfonamido)cyclohexyl)-5-cyclopropylisoxazole-3-carboxamide] |
| 883 nM | NCCC(=O)N(CCN)[C@H]1CC[C@H](NC(=O)c2cc(C3CC3)on2)CC1 [compound 35, N-((1r,4r)-4-(3-amino-N-(2-aminoethyl)propanamido)cyclohexyl)-5-cyclopropylisoxazole-3-carboxamide] |
| 7030 nM | NCCCN(C(=O)CCO)[C@H]1CC[C@H](NC(=O)c2cc(C3CC3)on2)CC1 [compound 36, N-((1r,4r)-4-(N-(3-aminopropyl)-3-hydroxypropanamido)cyclohexyl)-5-cyclopropylisoxazole-3-carboxamide] |
